Measurements: patent US6545007B2, “Methods for inhibiting the transmission of HIV using topically applied substituted 6-benzyl-4-oxopyrimidines” (Idenix (Cayman) Limited, priority 2000, dated 2003)
Where two headings read alike, the source gives them in different places.

Tests used:
HIV-1 (IIIB strain) = format: cell-based; settings: for EC50: anti-HIV-1 activity; for SI: selectivity index (CC50/EC50)
Experimental: Compounds. Compounds were solubilized in DMSO at 200 mM and then diluted into culture medium.
(§1) Cells and viruses. MT-4, C8166,H9/IIIB and CEM cells were grown at 37° C. in a 5% CO2 atmosphere in RPMI 1640 medium, supplemented with 10% fetal calf serum (FCS), 100 IU/mL penicillin and 100 μg/mL streptomycin. Cell cultures were checked periodically for the absence of mycoplasma contamination with a MycoTect Kit (Gibco). Human immunodeficiency virus type-I (HIV-1, IIIB strain) was obtained from supernatants of persistently infected H9/IIIB cells.
HIV Titration. Titration of HIV was performed in C8166 cells by the standard limiting dilution method (dilution 1:2, four replica wells per dilution) in 96-well plates. The infectious virus titre was determined by light microscope scoring of cytopathicity after 4 days of incubation and the virus titres were expressed as CCID50/mL.
(§2) Anti-HIV Assays. Activity of the compounds against HIV-1 and HIV-2 multiplication in acutely infected cells was based on the inhibition of virus-induced cytopathicity in MT-4 and C8166 cells, respectively. Briefly, 50 μL of culture medium containing 1×10^4 cells were added to each well of flat-bottom microtiter trays containing 50 μl of culture medium with or without various concentrations of the test compounds. Then 20 μL of an HIV suspension containing 100 CCID50 were added. After a 4-day incubation at 37° C., the number of viable cells was determined by the 3-(4,5-dimethylthiazol-[…])-2,5-diphenyltetrazolium bromide (MTT) method. Cytotoxicity of the compounds was evaluated in parallel with their antiviral activity. It was based on the viability of mock-infected cells, as monitored by the MTT method.

mock-infected MT-4 cells = assay: Cytotoxicity: viability of mock-infected cells by the MTT method; format: cell-based, human
Experimental: as §1, §2

[1] = acutely infected MT-4 cells, MTT

Compound	EC50 (HIV-1 (IIIB strain); HIV-1-infected MT-4 cells) [nM]	SI (HIV-1 (IIIB strain))	CC50 (mock-infected MT-4 cells) [nM]	EC50 (HIV-1 (IIIB strain); [1]) [nM]	CC50 (mock-infected MT-4 cells; MTT) [nM]
CC(c1cc(=O)[nH]c(SC2CCCC2)n1)c1c(F)cccc1F (stereo not shown) [MC 1008]	30	>6,666	> 200000		
CSc1nc(Cc2c(F)cccc2F)c(C)c(=O)[nH]1 [MC 869]	190	1,053	200000		
CSCSc1nc(Cc2c(F)cccc2F)c(C)c(=O)[nH]1 [MC 1162, 6-(2,6-Difluorophenylmethyl)-3,4-dihydro-5-methyl-2-(methylthiomethyl)thiopyrimidin-4(3H)-one]				120	30000
O=c1cc(Cc2c(F)cccc2F)nc(SC2CCCCC2)[nH]1 [MC 870]	80	2,500	200000		
Cc1c(Cc2c(F)cccc2F)nc(NC(C)C)[nH]c1=O [MC 1118]	30	6,333	190000		
CNc1nc(Cc2c(F)cccc2F)cc(=O)[nH]1 [MC 1167]	1500	>133	> 200000		
CCCCSc1nc(Cc2c(F)cccc2F)cc(=O)[nH]1 [MC 872]	180	900	162000		
CCC(c1cc(=O)[nH]c(SC2CCCCC2)n1)c1c(Cl)cccc1Cl (stereo not shown) [MC 1003]	3600	>55.5	> 200000		
Cc1c(Cc2c(F)cccc2F)nc(SC2CCCCC2)[nH]c1=O [MC 923]	90	>2,222	> 200000		
CCC(c1cc(=O)[nH]c(SC2CCCC2)n1)c1cccc2ccccc12 (stereo not shown) [MC 973]	3000	17	51000		
CCC(C)Nc1nc(Cc2c(F)cccc2F)cc(=O)[nH]1 (stereo not shown) [MC 945]	130	>1,540	> 200000		
CC(c1cc(=O)[nH]c(SC2CCCC2)n1)c1cccc2ccccc12 (stereo not shown) [MC 972]	500	186	93000		
CCC(C)Sc1nc(Cc2cccc(F)c2)cc(=O)[nH]1 (stereo not shown) [MC 884]	700	>286	> 200000		
O=c1cc(Cc2c(F)cccc2F)nc(SC2CCCC2)[nH]1 [MC 867]	80	>2,500	> 200000		
Cc1c(Cc2c(Cl)cccc2Cl)nc(SCC(C)C)[nH]c1=O [MC 916]	1200	>166	> 200000		
Cc1c(Cc2c(F)cccc2F)nc(N2CCOCC2)[nH]c1=O [MC 1205]				47	> 200000
CC(C)Nc1nc(Cc2c(F)cccc2F)cc(=O)[nH]1 [MC 979]	380	>526	> 200000		
CC(C)CSc1nc(C(C)c2c(F)cccc2F)cc(=O)[nH]1 (stereo not shown) [MC 1044]	50	>4,000	> 200000		
CCC(c1ccccc1)c1cc(=O)[nH]c(SC(C)C)n1 (stereo not shown) [MC 899]	800	250	200000		
CSCSc1nc(Cc2c(F)cccc2F)c(C(C)C)c(=O)[nH]1 [MC 1145, 6-(2,6-Difluorophenyhnethyl)-3,4-dihydro-5-(1-methylethyl)-2-(methylthiomethyl) thiopyrimidin-4-(3H)-one]				100	200000
CCC(C)Sc1nc(Cc2ccccc2OC)cc(=O)[nH]1 (stereo not shown) [MC 952]	1960	>208	> 200000		
Cc1c(C(C)c2c(F)cccc2F)nc(SCC(C)C)[nH]c1=O (stereo not shown) [MC 1153]				10	> 200000
CC(c1cc(=O)[nH]c(NC2CCCCC2)n1)c1c(F)cccc1F (stereo not shown) [MC 1180]				20	56000
O=c1cc(Cc2c(F)cccc2F)nc(NC2CC2)[nH]1 [MC 980]	3170	>63	> 200000		
CCC(C)Sc1nc(Cc2cccc([N+](=O)[O-])c2)c(C)c(=O)[nH]1 (stereo not shown) [MC 925]	350	>571	> 200000		
CCC(C)Sc1nc(Cc2ccccc2F)c(C)c(=O)[nH]1 (stereo not shown) [MC 913]	410	341	140000		
